Measurements published in article PMC9100072, “Modulation of the MOP Receptor (μ Opioid Receptor) by Imidazo[1,2-a]imidazole-5,6-Diones: In Search of the Elucidation of the Mechanism of Action” (Molecules, 2022).
“And” between values parts separate entries of the source, which are not always exact repeats. Identical values can stand only once. Like-named read-outs stand apart in the source and are kept apart here.

How the values were obtained:
[1] = target: T1, human μ-opioid (OP3) receptor (Homo sapiens, UniProt P35372); assay: cell-based; details: for Emax at 0.03 µM / Emax: U2OS; for Emax at 0.03 µM: read-out: Emax% (EC87: 30 nM) Antagonist Mode
human μ-opioid receptor = target: T2, human μ-opioid receptor (Homo sapiens, UniProt P35372); assay: biochemical; format: binding; details: for binding to the μ-opioid receptor: tested concentrations 10^−5–10^−10 M
T2 construct: purchased Perkin Elmer ES-542-M400UA; host or cells: CHO-K1 cells, stably transfected (membranes)
Experimental: The reaction was terminated by rapid filtration through GF/B filter mate presoaked with 0.5% polyethyleneimine for 30 min. […] Data were fitted to a one-site curve-fitting equation with Prism 6 (GraphPad Software), and Ki values were estimated from the Cheng–Prusoff equation.

[2] = target: T1, human μ-opioid (OP3) receptor; assay: cell-based; format: cell-based; design: Emax: dose or concentration left out as unconfirmed
[3] = read-out: Emax% (EC20: 1 nM) Antagonist Mode
[4] = CHO-K1; read-out: Emax% Agonist Mode
[5] = CHO-K1; read-out: Emax% Antagonist Mode
[6] = CHO-K1, read-out: Emax% Antagonist Mode

T1 sequence (P35372 whole entry): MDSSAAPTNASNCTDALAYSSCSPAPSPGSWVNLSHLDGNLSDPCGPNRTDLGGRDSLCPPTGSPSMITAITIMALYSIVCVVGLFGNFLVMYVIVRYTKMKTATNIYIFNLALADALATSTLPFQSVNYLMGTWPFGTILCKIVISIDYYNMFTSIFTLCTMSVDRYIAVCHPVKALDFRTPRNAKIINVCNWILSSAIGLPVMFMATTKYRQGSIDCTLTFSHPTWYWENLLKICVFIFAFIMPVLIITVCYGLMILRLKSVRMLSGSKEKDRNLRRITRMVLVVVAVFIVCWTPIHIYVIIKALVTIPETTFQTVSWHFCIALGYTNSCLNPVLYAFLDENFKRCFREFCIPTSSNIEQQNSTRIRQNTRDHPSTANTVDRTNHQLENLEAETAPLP
T2 sequence (P35372 whole entry): as above

SMILES	Emax at 0.03 µM [1] [%]	Emax [1, 3] [%]	Emax ([1]; read-out: Emax% Agonist Mode) [%]	binding to the μ-opioid receptor (human μ-opioid receptor)	Emax [2, 4] [%]	Emax [2, 5] [%]	Emax at 0.0046 µM [2, 5] [%]	Emax at 0.03 µM [2, 5] [%]	Emax% Antagonist Mode [2]	melting point [°C]	further results
O=C1N=C2N(CCN2c2ccccc2)C1=O [1a]	22	92	8	No binding	15	6	4	9	–	–	–
Cc1cccc(N2CCN3C(=O)C(=O)N=C32)c1 [1b]	12	94	13	No binding	13	10	6	–	5%	220 to 223	–
Cc1ccc(N2CCN3C(=O)C(=O)N=C32)cc1 [1c, 1-(4-methylphenyl)-2,3-dihydro-1H-imidazo[1,2-a]imidazole-5,6-dione]	12	97	15	No binding	13	35	4	–	–	236 to 238	pharmacological classification in words ([2]; from cAMP functional data (with binding data for the modulator conclusion)): weak antagonist properties; pharmacological classification in words ([2]; from cAMP functional data (with binding data for the modulator conclusion); listed as 1-(4-methylphenyl)-2,3-dihydro-1H-imidazo[1,2-a]imidazole-5,6-dione): negative allosteric modulator; Kb ([2]; pKb Range Antagonist Mode): 0.661 nM; Kb ([2]; read-out: pKb Range Antagonist Mode (converted)): 8.91 nM
O=C1N=C2N(CCN2c2cccc(Cl)c2)C1=O [1d]	9	92	15	No binding	13	22	4	5	–	279 to 280	–
O=C1N=C2N(CCN2c2ccc(Cl)cc2)C1=O [1e]	19	89	14	No binding	13	8	12	5	3%	–	–
C[C@@H](O)[C@H](NC(=O)[C@H]1NC(=O)[C@H]([C@@H](C)O)NC(=O)[C@H](CCCNC(=N)N)NC(=O)[C@@H](Cc2c[nH]c3ccccc23)NC(=O)[C@H](Cc2ccc(O)cc2)NC(=O)[C@@H](NC(=O)[C@H](N)Cc2ccccc2)CSSC1(C)C)C(N)=O [CTAP, {d-Phe}-Cys-Tyr-{d-Trp}-Arg-Thr-{Pen}-Thr-NH2 (disulfide bridge: Cys2-Pen7), reference compound]	–	–	–	–	–	–	–	–	–	–	Ki (human μ-opioid receptor): 4.9 nM; Emax ([2]; CHO-K1, read-out: Emax% Agonist Mode): 12%; Emax [2, 6]: 100%; Emax at 0.0046 µM [2, 6]: 100%; Emax at 0.03 µM [2, 6]: 116%
C[C@@H](NC(=O)[C@@H](N)Cc1ccc(O)cc1)C(=O)NCC(=O)N(C)[C@@H](Cc1ccccc1)C(=O)NCCO [DAMGO, (2S)-2-[[2-[[(2R)-2-[[(2S)-2-Amino-3-(4-hydroxyphenyl)propanoyl]-amino]-propanoyl]amino]acetyl]-methylamino]-N-(2-hydroxyethyl)-3-phenylpropanamide, reference compound]	–	–	–	–	–	–	–	–	2%	–	EC20 of DAMGO [2]: 1 nM; EC80 of DAMGO [2]: 18 nM; EC87 of DAMGO [2]: 30 nM; Emax [2, 6]: 0%; Emax at 0.0046 µM [2, 6]: 0%
COC(=O)/C=C/C(=O)N[C@@H]1CC[C@@]2(O)[C@H]3Cc4ccc(O)c5c4[C@@]2(CCN3CC2CC2)[C@H]1O5 [ß-FUNALTREXAMINE, beta-funaltrexamine, reference compound]	–	–	–	–	–	–	–	–	66% and 40% and 46% and 42%	–	Emax% (EC20: 1 nM) Antagonist Mode [1]: 122%; Emax% (EC87: 30 nM) Antagonist Mode [1]: 127%; Emax% Agonist Mode ([1]; β-arrestin recruitment, fraction of effect of DAMGO): 10%; pKi Range (human μ-opioid receptor): 9.13 (9.10–9.15); Emax% Agonist Mode [2]: 17%
